Measured values from patent EP3404113A1, “METHOD FOR DETECTING PROTEIN-DNA INTERACTION” (Universidad del Pais Vasco, priority 2017, dated 2018).
Entries after “also recorded” stand apart in the source; their conditions may differ.

Assays:
FOXM1-DNA = target: T1, FOXM1-DNA (Homo sapiens, UniProt Q08050); test: Multiplexed nanopore single-molecule measurement, FOXM1-DNA pair (Reporter 2); assay type: binding; details: increasing amounts of FDI-6
T1 construct: the FoxMIC gene (residues 222-360) was cloned in a pET-28 vector; made in house; host or cells: E. coli BL21 (DE3)
T1 sequence (Q08050 222-360): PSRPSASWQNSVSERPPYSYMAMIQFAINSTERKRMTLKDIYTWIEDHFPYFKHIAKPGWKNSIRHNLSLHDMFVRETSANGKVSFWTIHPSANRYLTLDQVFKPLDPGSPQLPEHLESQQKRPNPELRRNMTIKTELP

RepE-DNA = target: T2, RepE-DNA (Escherichia coli, UniProt P03856); test: Multiplexed nanopore single-molecule measurement, RepE-DNA pair (Reporter 1); assay type: binding; details: 0.87 µM RepE, 0.047 µM DNA, increasing amounts of FDI-6, n = 4
T2 construct: purified from an intein vector pTXB1 containing the ORF fused with intein at the C terminus; made in house; host or cells: E. coli BL21 (DE3)

FOXM1 = target: T3, FOXM1 (Homo sapiens, UniProt Q08050); test: Nanopore single-molecule measurement of the inhibition of FOXM1 binding to its DNA target sequence
T3 construct: the FoxMIC gene (residues 222-360) was cloned in a pET-28 vector; made in house; host or cells: E. coli BL21 (DE3)
T3 sequence (Q08050 222-360): T1 sequence (Q08050 222-360)
Method: The cis compartment (connected to the ground electrode and where samples were added) was filled with 5 mM MgCl2, 150 mM KCl, 10 mM HEPES pH 7.2 (to mimic physiological conditions) and the trans compartment with 5 mM MgCl2, 2 M KCl, 10 mM HEPES pH 7.2 (to increase the ionic current signal). 0.5 µL of previously heptamerized α-HL was added to the cis compartment and following the first insertion the chamber was manually perfused to remove excess of α-HL. Ionic currents through the αHL pore were measured using Ag/AgCl electrodes with agar bridges in 3 M KCl, and balanced before measurements. The electrodes were connected to an amplifier (Axopatch 200B, Molecular Devices), the signal was filtered at 5 kHz (lowpass Bessel filter) and acquired at 20 kHz with a digitizer (Digidata 1440A, Molecular Devices). All experiments were repeated in at least 3 different pores. Raw data was first analyzed with pClamp software (Molecular Devices) to obtain the current and dwell time of the ionic current levels, >90% of the signals longer than 10 ms were the characteristic signals described in the main text. The residual current of a level is defined as the ionic current of the level divided by the ionic current of the open pore. Data analysis was carried out with Igor Pro (Wavemetrics) and molecular representations were performed using Chimera (UCSF).^47 The confidence interval of the kinetic rates were estimated using: kupp = k⋅(1+z/√n) [formula] klow = k⋅(1−z/√n) [formula] Transcription factors are frequently considered as ideal targets for cancer therapy, yet finding molecules capable of specifically inhibiting their interactions with DNA is challenging. Motivated by the high sensitivity of our measurements, we aimed to explore the capabilities of the nanopore to detect small molecule activity. We choose the DNA binding domain of Forkhead box protein M1 (FOXM1), which is overexpressed in many cancers and for which a molecule that inhibits binding to its target sequence has been reported, FDI-6^37 (Figure 3). When a DNA hairpin containing the binding sequence^38 and a 5' overhang is subjected to nanopore analysis we observe the characteristic ionic current signal reflecting the threading, unzipping and translocation of the DNA (Figure 3a). […] In agreement with previous reports,^29 we attribute the differences in unzipping kinetics to the differences in the first base pair to be unzipped. The RepE oligonucleotide begins with G-C while that of FOXM1 begins with A-T. Following the addition of FOXM1 protein, events showing an additional step are detected (Figure 3b), which correspond to the threading of protein-bound DNA molecules, detachment of the protein, unzipping and translocation of the DNA through the pore. […]

DNA-hairpin reporter = test: Nanopore detection of a non-specific DNA interacting compound; assay type: binding

Row | SMILES | fraction of events assigned to Reporter 2 with bound protein (FOXM1-DNA) | effect on the interaction between RepE and its target sequence (RepE-DNA) | mechanism of action deduced from kinetics of DNA unzipping and protein detachment (FOXM1) | Kd (FOXM1; affinity of the inhibitor for the protein, model: one site, reversible, binding completely prevents protein-DNA interaction, mean ± SD, n=7) [µM] | koff (FOXM1; protein detachment from DNA in the presence of FDI-6, +90 mV, 95 % CI, n = 3, compound absent 57 [96 - 18], read-out: koff,90mV,FD16) [s⁻¹] | fraction of events with a protein bound to DNA (FOXM1; sequential additions of FDI-6 to FOXM1-DNA solution) | ionic current traces (DNA-hairpin reporter; 2.5 mM doxorubicin added to a solution of RepE and its DNA-hairpin reporter) | ionic current signal (DNA-hairpin reporter; interaction of doxorubicin with the DNA)
1 | Nc1c(C(=O)Nc2ccc(F)cc2)sc2nc(-c3cccs3)cc(C(F)(F)F)c12 [FDI-6] | decreased | had no effect; also recorded: in none of our measurements was the RepE-DNA pair affected | binds the protein (not the DNA), and that binding is competitive | 139 ± 73 | 49 | decreases | – | –
2 | COc1cccc2c1C(=O)c1c(O)c3c(c(O)c1C2=O)C[C@@](O)(C(=O)CO)C[C@@H]3O[C@H]1C[C@H](N)[C@H](O)[C@H](C)O1 [doxorubicin] | – | – | – | – | – | – | no characteristic signal for DNA unzipping and translocation was detected | radically changed the ionic current signal, giving noisy long-lived events
